Data published in US20240294489A1 (Captor Therapeutics S.A., priority 2020, published 2024).

Legend:
Aiolos (IKZF3) = target: T1, Aiolos (IKZF3) (Homo sapiens, UniProt Q96SW2+Q9UKT9); experiment: Aiolos degradation assay, H929 cell line; assay type: cell-based; details: H929 cells, 20 μM, 24 h
T1 construct: Aiolos degradation in the H929 cell line was investigated; endogenous in cells; host or cells: H929
Experimental: Cells were seeded on 6- or 12-well plates, and the compounds to be tested were added at the desired concentration range. […] After 24 h incubation (37° C., 5% CO2), cells were harvested, washed and cell lysates were prepared using RIPA lysis buffer. The amount of protein was determined via BCA assay, and the appropriate quantity was then loaded on the precast gel for the protein separation. After primary and secondary Ab staining, the membranes were washed and signals developed. The densitometry analysis was implemented to obtain the numeric values used later in the protein level evaluation process.

MOLP-2 = experiment: Cell viability, additional cell lines (CellTiter-Glo), MOLP-2; assay type: cell-based; details: MOLP-2, 72 h
Experimental: Tumor cells are grown at 37° C. in a humidified atmosphere with 5% CO2 in RPMI 1640 medium, supplemented with 10% (v/v) fetal calf serum and 50 μg/ml gentamicin for up to 20 passages, and are passaged once or twice weekly.
Cells are harvested from exponential phase cultures, counted and plated in 96 well flat-bottom microtiter plates at a cell density depending on the cell line's growth rate (4,000-20,000 cells/well depending on the cell line's growth rate, up to 60,000 for hematological cancer cell lines) in RPMI 1640 medium supplemented with 10% (v/v) fetal calf serum and 50 μg/ml gentamicin (140 μl/well). Cultures are incubated at 37° C. and 5% CO2 in a humidified atmosphere. After 24 h, 10 μl of test compounds or control medium are added and left on the cells for another 72 h. Compounds are serially diluted in DMSO, transferred in cell culture medium, and added to the assay plates by using a Tecan Freedom EVO 200 robotic platform. The DMSO concentration is kept constant at 0.3% v/v across the assay plate. Viability of cells is quantified by the CellTiter-Glo® cell viability assay (Promega G8462). After incubation of cells, 100 μl of CellTiter-Glo® One Solution Assay reagent are added to each well. Plates are shaken for 2 minutes to induce cell lysis and incubated for 20 minutes prior to reading luminescence (LU) by using the EnVision® Xcite multilabel plate reader (Perkin Elmer). […]

T1 sequence (Q9UKT9 whole entry): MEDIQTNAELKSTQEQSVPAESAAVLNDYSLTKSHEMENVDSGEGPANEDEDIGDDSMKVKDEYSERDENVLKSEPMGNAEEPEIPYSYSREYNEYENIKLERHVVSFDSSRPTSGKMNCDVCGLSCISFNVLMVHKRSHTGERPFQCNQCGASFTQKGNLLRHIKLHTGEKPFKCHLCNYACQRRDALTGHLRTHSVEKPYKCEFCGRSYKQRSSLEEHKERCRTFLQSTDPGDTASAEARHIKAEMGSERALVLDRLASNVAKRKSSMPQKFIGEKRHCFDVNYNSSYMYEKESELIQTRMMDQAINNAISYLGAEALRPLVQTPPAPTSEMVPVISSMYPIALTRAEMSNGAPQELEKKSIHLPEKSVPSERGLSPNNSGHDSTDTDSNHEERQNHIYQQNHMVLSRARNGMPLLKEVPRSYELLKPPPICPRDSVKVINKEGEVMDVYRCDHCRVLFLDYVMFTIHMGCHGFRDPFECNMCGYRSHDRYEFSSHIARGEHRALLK
T1 sequence (Q96SW2 whole entry): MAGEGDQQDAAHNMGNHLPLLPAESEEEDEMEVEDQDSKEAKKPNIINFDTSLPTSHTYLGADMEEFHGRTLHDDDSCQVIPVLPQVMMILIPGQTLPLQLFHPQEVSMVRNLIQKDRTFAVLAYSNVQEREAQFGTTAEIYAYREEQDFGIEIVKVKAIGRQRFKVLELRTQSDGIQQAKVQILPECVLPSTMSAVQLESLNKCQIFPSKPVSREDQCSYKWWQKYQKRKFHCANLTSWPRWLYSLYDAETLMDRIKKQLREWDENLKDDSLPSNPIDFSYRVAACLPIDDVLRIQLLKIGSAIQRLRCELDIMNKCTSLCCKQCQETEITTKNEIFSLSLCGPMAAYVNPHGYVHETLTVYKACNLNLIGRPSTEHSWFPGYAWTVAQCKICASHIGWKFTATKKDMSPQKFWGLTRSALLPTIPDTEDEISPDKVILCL
T1 sequence (Q16531 whole entry partner): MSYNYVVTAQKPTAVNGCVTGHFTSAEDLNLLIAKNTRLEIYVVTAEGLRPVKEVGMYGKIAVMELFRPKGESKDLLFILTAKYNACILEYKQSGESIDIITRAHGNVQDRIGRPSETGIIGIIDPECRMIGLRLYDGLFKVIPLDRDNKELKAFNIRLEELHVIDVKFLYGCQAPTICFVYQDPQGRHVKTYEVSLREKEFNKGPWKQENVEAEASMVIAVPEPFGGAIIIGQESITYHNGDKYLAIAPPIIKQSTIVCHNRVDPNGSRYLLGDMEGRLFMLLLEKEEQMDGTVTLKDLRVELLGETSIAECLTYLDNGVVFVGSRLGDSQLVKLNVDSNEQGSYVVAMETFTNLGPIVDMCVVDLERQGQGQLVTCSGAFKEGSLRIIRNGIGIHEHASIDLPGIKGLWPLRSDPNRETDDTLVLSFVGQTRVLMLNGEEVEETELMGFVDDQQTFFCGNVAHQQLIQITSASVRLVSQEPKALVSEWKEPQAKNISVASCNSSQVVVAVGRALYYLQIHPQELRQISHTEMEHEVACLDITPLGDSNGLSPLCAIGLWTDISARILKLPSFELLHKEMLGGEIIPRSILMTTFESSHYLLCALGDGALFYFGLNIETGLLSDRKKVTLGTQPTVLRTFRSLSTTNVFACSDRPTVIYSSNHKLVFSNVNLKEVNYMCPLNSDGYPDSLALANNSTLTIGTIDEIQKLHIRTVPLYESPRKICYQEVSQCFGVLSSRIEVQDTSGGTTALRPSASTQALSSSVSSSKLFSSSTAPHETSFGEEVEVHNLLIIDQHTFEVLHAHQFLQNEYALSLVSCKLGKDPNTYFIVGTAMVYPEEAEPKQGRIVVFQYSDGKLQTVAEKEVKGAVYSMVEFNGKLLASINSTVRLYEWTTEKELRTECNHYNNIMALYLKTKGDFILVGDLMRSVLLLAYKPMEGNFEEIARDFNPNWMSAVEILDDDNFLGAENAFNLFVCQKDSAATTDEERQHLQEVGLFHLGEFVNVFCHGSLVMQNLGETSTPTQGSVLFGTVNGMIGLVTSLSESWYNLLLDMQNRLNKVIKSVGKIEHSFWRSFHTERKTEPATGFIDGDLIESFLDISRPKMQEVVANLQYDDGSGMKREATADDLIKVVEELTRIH

SMILES: NCc1ccc2c(c1)CN(C1CCC(=O)NC1=O)C2=O (stereo not drawn) [Compound 1, 3-(5-(aminomethyl)-1-oxoisoindolin-2-yl)piperidine-2,6-dione]
- % of IKZF3 protein reduction (Aiolos (IKZF3)): C (C represents 0-24% of IKZF1 protein reduction)
- viability at 9.5 µM (MOLP-2; 9.5 μM, read-out: Test/Control viability at 9.5 μM): ≤ 60%
- IC50 (MOLP-2; read-out: Absolute IC50): 100 to 1000 nM
